Data on 24 molecules can be found in US20250230172A1 (Vanqua Bio, Inc., priority 2021, published 2025).

This test has as its target T1, GCase (Homo sapiens, UniProt P04062).
T1 construct: endogenous in cells; host or cells: HeLa cells
T1 sequence (P04062 40-536): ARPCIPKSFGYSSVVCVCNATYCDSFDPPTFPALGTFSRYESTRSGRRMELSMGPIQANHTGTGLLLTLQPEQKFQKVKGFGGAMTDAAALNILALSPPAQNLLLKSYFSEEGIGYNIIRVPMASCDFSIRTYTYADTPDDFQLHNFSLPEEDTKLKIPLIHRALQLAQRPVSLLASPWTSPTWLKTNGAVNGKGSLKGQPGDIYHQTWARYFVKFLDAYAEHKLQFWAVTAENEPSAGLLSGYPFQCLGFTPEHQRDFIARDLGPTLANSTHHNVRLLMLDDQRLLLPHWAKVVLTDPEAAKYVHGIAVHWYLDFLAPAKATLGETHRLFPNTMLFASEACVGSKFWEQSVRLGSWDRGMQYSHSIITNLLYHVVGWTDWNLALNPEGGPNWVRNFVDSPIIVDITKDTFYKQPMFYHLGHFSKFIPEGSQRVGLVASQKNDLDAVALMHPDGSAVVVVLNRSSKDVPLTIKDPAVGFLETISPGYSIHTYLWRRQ
Briefly: live cell PFB assay in HELA cells for activation of GCase. The class given is cell-based. On the procedure:
Exemplary compounds were evaluated for activation of GCase in a live cell PFB assay in HELA cells (essentially as described in Ysselstein et al., “LRRK2 kinase activity regulates lysosomal glucocerebrosidase in neurons derived from Parkinson's disease patients” Nature Communications (2019) 10:5570). […] EC50 ranges: A: <10 μM; B: >10-50 μM; C: >50-100 μM; D: >100 μM.

The EC50 is the concentration at which the effect is half-maximal. A low value points to a more potent agent.

In turn, `FC(F)Cn1ncc2ncc(N[C@H]3C[C@@H]4CN(c5cccc(C(F)(F)F)n5)C[C@@H]4C3)nc21` [Compound 34, (3aR,5R,6aS)—N-[1-(2,2-difluoroethyl)-1H-pyrazolo[3,4-b]pyrazin-6-yl]-2-[6-(trifluoromethyl)pyridin-2-yl]-octahydrocyclopenta[c]pyrrol-5-amine] came in with an EC50 of 10 to 50 µM.

As for `FC(F)Cn1ncc2ncc(N[C@H]3C[C@@H]4CN(c5cc(C(F)(F)F)ccn5)C[C@@H]4C3)nc21` [Compound 35, (3aR,5R,6aS)—N-[1-(2,2-difluoroethyl)-1H-pyrazolo[3,4-b]pyrazin-6-yl]-2-[4-(trifluoromethyl)pyridin-2-yl]-octahydrocyclopenta[c]pyrrol-5-amine], the EC50 is less than 10 µM.

For the molecule `FC(F)Cn1ncc2ncc(N[C@@H]3C[C@@H]4CN(c5cccnc5C(F)(F)F)C[C@@H]4C3)nc21` [Compound 36, (3aR,5S,6aS)—N-[1-(2,2-difluoroethyl)-1H-pyrazolo[3,4-b]pyrazin-6-yl]-2-[2-(trifluoromethyl)pyridin-3-yl]-octahydrocyclopenta[c]pyrrol-5-amine], the EC50 is less than 10 µM.

With `FC(F)Cn1ncc2ncc(N[C@H]3C[C@@H]4CN(c5cccnc5C(F)(F)F)C[C@@H]4C3)nc21` [Compound 37, (3aR,5R,6aS)—N-[1-(2,2-difluoroethyl)-1H-pyrazolo[3,4-b]pyrazin-6-yl]-2-[2-(trifluoromethyl)pyridin-3-yl]-octahydrocyclopenta[c]pyrrol-5-amine], the EC50 was less than 10 µM. The molecule `FC(F)Cn1ncc2ncc(N[C@@H]3C[C@@H]4CN(c5ncccc5C(F)(F)F)C[C@@H]4C3)nc21` [Compound 38, (3aR,5S,6aS)—N-[1-(2,2-difluoroethyl)-1H-pyrazolo[3,4-b]pyrazin-6-yl]-2-[3-(trifluoromethyl)pyridin-2-yl]-octahydrocyclopenta[c]pyrrol-5-amine] yielded an EC50 of less than 10 µM. `FC(F)Cn1ncc2ncc(N[C@@H]3C[C@@H]4CN(c5ccc(C(F)(F)F)nc5)C[C@@H]4C3)nc21` [Compound 39, (3aR,5S,6aS)—N-[1-(2,2-difluoroethyl)-1H-pyrazolo[3,4-b]pyrazin-6-yl]-2-[6-(trifluoromethyl)pyridin-3-yl]-octahydrocyclopenta[c]pyrrol-5-amine] showed an EC50 of less than 10 µM. As for `FC(F)Cn1ncc2ncc(N[C@H]3C[C@@H]4CN(c5ccc(C(F)(F)F)cn5)C[C@@H]4C3)nc21` [Compound 40, (3aR,5S,6aS)—N-[1-(2,2-difluoroethyl)-1H-pyrazolo[3,4-b]pyrazin-6-yl]-2-[5-(trifluoromethyl)pyridin-2-yl]-octahydrocyclopenta[c]pyrrol-5-amine], the figure is 10 to 50 µM. In turn, `FC(F)Cn1ncc2ncc(NC3C[C@@H]4CN(c5ncccc5C(F)(F)F)C[C@@H]4C3)nc21` (stereo partly drawn) [Compound 41, (3aR,5S,6aS)—N-[1-(2,2-difluoroethyl)-1H-pyrazolo[3,4-b]pyrazin-6-yl]-2-[3-(trifluoromethyl)pyridin-2-yl]-octahydrocyclopenta[c]pyrrol-5-amine] registered an EC50 greater than 100 µM.

Molecule `FC(F)Cn1ncc2ncc(N[C@H]3C[C@@H]4CN(c5ccc(C(F)(F)F)nc5)C[C@@H]4C3)nc21` [Compound 42, (3aR,5S,6aS)—N-[1-(2,2-difluoroethyl)-1H-pyrazolo[3,4-b]pyrazin-6-yl]-2-[6-(trifluoromethyl)pyridin-3-yl]-octahydrocyclopenta[c]pyrrol-5-amine] gave an EC50 of 10 to 50 µM. For the molecule `FC(F)Cn1ncc2ncc(N3C[C@H]4CN(c5cc(C(F)(F)F)ccn5)C[C@H]4C3)nc21` [Compound 43, rac-2-[(3aR,6aS)-5-[1-(2,2-difluoroethyl)-1H-pyrazolo[3,4-b]pyrazin-6-yl]-octahydropyrrolo[3,4-c]pyrrol-2-yl]-4-(trifluoromethyl)pyridine], the 50% effective concentration (EC50) is less than 10 µM. In turn, `FC(F)Cn1ncc2ncc(N3C[C@H]4CN(c5cccc(C(F)(F)F)n5)C[C@H]4C3)nc21` [Compound 45, rac-2-[(3aR,6aS)-5-[1-(2,2-difluoroethyl)-1H-pyrazolo[3,4-b]pyrazin-6-yl]-octahydropyrrolo[3,4-c]pyrrol-2-yl]-6-(trifluoromethyl)pyridine] returned an EC50 greater than 100 µM. As for `FC(F)Cn1ncc2ncc(N3C[C@H]4CN(c5ccc(C(F)(F)F)nc5)C[C@H]4C3)nc21` [Compound 47, rac-5-[(3aR,6aS)-5-[1-(2,2-difluoroethyl)-1H-pyrazolo[3,4-b]pyrazin-6-yl]-octahydropyrrolo[3,4-c]pyrrol-2-yl]-2-(trifluoromethyl)pyridine], the EC50 was 10 to 50 µM.

The molecule `FC(F)Cn1ncc2ncc(N3C[C@@H]4CN(c5cccnc5C(F)(F)F)C[C@@H]4C3)nc21` [Compound 49, rac-3-[(3aR,6aS)-5-[1-(2,2-difluoroethyl)-1H-pyrazolo[3,4-b]pyrazin-6-yl]-octahydropyrrolo[3,4-c]pyrrol-2-yl]-2-(trifluoromethyl)pyridine] registered an EC50 of 10 to 50 µM. As for `FC(F)Cn1ncc2ncc(N[C@@H]3C[C@@H]4CN(c5ccc(C(F)(F)F)cn5)C[C@@H]4C3)nc21` [Compound 51, (3aR,5S,6aS)—N-[1-(2,2-difluoroethyl)-1H-pyrazolo[3,4-b]pyrazin-6-yl]-2-[5-(trifluoromethyl)pyridin-2-yl]-octahydrocyclopenta[c]pyrrol-5-amine], the figure is less than 10 µM; as for `FC(F)Cn1ncc2ncc(N[C@@H]3C[C@@H]4CN(c5cncc(C(F)(F)F)c5)C[C@@H]4C3)nc21` [Compound 52, (3aR,5S,6aS)—N-[1-(2,2-difluoroethyl)-1H-pyrazolo[3,4-b]pyrazin-6-yl]-2-[5-(trifluoromethyl)pyridin-3-yl]-octahydrocyclopenta[c]pyrrol-5-amine], less than 10 µM; as for `FC(F)Cn1ncc2ncc(N[C@H]3C[C@@H]4CN(c5cncc(C(F)(F)F)c5)C[C@@H]4C3)nc21` [Compound 53, (3aR,5S,6aS)—N-[1-(2,2-difluoroethyl)-1H-pyrazolo[3,4-b]pyrazin-6-yl]-2-[5-(trifluoromethyl)pyridin-3-yl]-octahydrocyclopenta[c]pyrrol-5-amine], less than 10 µM. To `CN(c1cnc2cnn(CC(F)F)c2n1)[C@H]1C[C@@H]2CN(c3cncc(C(F)(F)F)c3)C[C@@H]2C1` [Compound 54, (3aR,5S,6aS)—N-[1-(2,2-difluoroethyl)-1H-pyrazolo[3,4-b]pyrazin-6-yl]-N-methyl-2-[5-(trifluoromethyl)pyridin-3-yl]-octahydrocyclopenta[c]pyrrol-5-amine] belongs 10 to 50 µM; to `FC(F)Cn1ncc2ncc(-n3cc4c(n3)CCN(c3ncccc3C(F)(F)F)C4)nc21` [Compound 63, 1-(2,2-difluoroethyl)-6-(5-(3-(trifluoromethyl)pyridin-2-yl)-4,5,6,7-tetrahydro-2H-pyrazolo[4,3-c]pyridin-2-yl)-1H-pyrazolo[3,4-b]pyrazine], less than 10 µM; to `FC(F)Cn1ncc2ncc(-n3ncc4c3CCN(c3ncccc3C(F)(F)F)C4)nc21` [Compound 64, 1-(2,2-difluoroethyl)-6-(5-(3-(trifluoromethyl)pyridin-2-yl)-4,5,6,7-tetrahydro-1H-pyrazolo[4,3-c]pyridin-1-yl)-1H-pyrazolo[3,4-b]pyrazine], 10 to 50 µM. As for `O=C1C2CN(c3cnc4cnn(CC(F)F)c4n3)CCC2CN1c1cccc(C(F)(F)F)n1` (stereo not drawn) [Compound 65, 5-(1-(2,2-difluoroethyl)-1H-pyrazolo[3,4-b]pyrazin-6-yl)-2-(6-(trifluoromethyl)pyridin-2-yl)octahydro-3H-pyrrolo[3,4-c]pyridin-3-one], the figure is less than 10 µM. For `O=C1CC2CN(c3cccc(C(F)(F)F)n3)CC2CN1c1cnc2cnn(CC(F)F)c2n1` (stereo not drawn) [Compound 66, 5-(1-(2,2-difluoroethyl)-1H-pyrazolo[3,4-b]pyrazin-6-yl)-2-(6-(trifluoromethyl)pyridin-2-yl)octahydro-6H-pyrrolo[3,4-c]pyridin-6-one], the EC50 fell in the range of 10 to 50 µM. On to `O=C1C2CCN(c3cnc4cnn(CC(F)F)c4n3)CC2CN1c1cccc(C(F)(F)F)n1` (stereo not drawn) [Compound 67, 5-(1-(2,2-difluoroethyl)-1H-pyrazolo[3,4-b]pyrazin-6-yl)-2-(6-(trifluoromethyl)pyridin-2-yl)octahydro-1H-pyrrolo[3,4-c]pyridin-1-one], for which the EC50 is less than 10 µM.

For `FC(F)Cn1ncc2ncc(N3CC[C@H]4CN(c5ccc(C(F)(F)F)cn5)C[C@@H]4C3)nc21` [Compound 69, 1-(2,2-difluoroethyl)-6-((3aS,7aR)-2-(5-(trifluoromethyl)pyridin-2-yl)octahydro-5H-pyrrolo[3,4-c]pyridin-5-yl)-1H-pyrazolo[3,4-b]pyrazine], the concentration giving a half-maximal response (EC50) lay in the range of 10 to 50 µM. To `COc1cncc(N2C[C@H]3C[C@H](Nc4cnc5cnn(CC(F)F)c5n4)C[C@H]3C2)n1` [Compound 76, 1-(2,2-difluoroethyl)-N-((3aR,5s,6aS)-2-(6-methoxypyrazin-2-yl)octahydrocyclopenta[c]pyrrol-5-yl)-1H-pyrazolo[3,4-b]pyrazin-6-amine] belongs 10 to 50 µM.
